Reference: PubChem BioAssay (NCI)
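Where inhibition never reached the appropriate level, the endpoint shown equals the highest concentration tested. Otherwise, values were interpolated linearly from a five-concentration, 48-hour dose response in 96-well plates. At the TGI there is no net growth.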

Experiments:
Assay in all cases: NCI-60 cell line screen, 48 h
HCT-15 colon = system: HCT-15 colon
MALME-3M melanoma = system: MALME-3M melanoma
HOP-92 NSCLC = system: HOP-92 NSCLC
CAKI-1 renal = system: CAKI-1 renal
HT29 colon = system: HT29 colon
IGROV1 ovarian = system: IGROV1 ovarian
SK-MEL-28 melanoma = system: SK-MEL-28 melanoma
HOP-62 NSCLC = system: HOP-62 NSCLC
SW-620 colon = system: SW-620 colon
LOX IMVI melanoma = system: LOX IMVI melanoma
M19-MEL melanoma = system: M19-MEL melanoma
HCC-2998 colon = system: HCC-2998 colon
MOLT-4 leukemia = system: MOLT-4 leukemia
NCI-H226 lung = system: NCI-H226 lung
SF-268 CNS = system: SF-268 CNS
UACC-257 melanoma = system: UACC-257 melanoma
XF 498 CNS = system: XF 498 CNS
HCT-116 colon = system: HCT-116 colon
U251 CNS = system: U251 CNS
SK-OV-3 ovarian = system: SK-OV-3 ovarian
786-0 renal = system: 786-0 renal
K-562 leukemia = system: K-562 leukemia
SNB-75 CNS = system: SNB-75 CNS
SF-539 CNS = system: SF-539 CNS
KM12 colon = system: KM12 colon
RXF-631 renal = system: RXF-631 renal
NCI-H460 lung = system: NCI-H460 lung
SN12C renal = system: SN12C renal
COLO 205 colon = system: COLO 205 colon
SF-295 CNS = system: SF-295 CNS
OVCAR-4 ovarian = system: OVCAR-4 ovarian
DLD-1 colon = system: DLD-1 colon
SK-MEL-2 melanoma = system: SK-MEL-2 melanoma
A549 NSCLC = system: A549 NSCLC
UO-31 renal = system: UO-31 renal
TK-10 renal = system: TK-10 renal
SNB-78 CNS = system: SNB-78 CNS
KM20L2 colon = system: KM20L2 colon
DMS 273 small cell lung = system: DMS 273 small cell lung
NCI-H23 lung = system: NCI-H23 lung
ACHN renal = system: ACHN renal
SNB-19 CNS = system: SNB-19 CNS
LXFL 529 NSCLC = system: LXFL 529 NSCLC
UACC-62 melanoma = system: UACC-62 melanoma
OVCAR-5 ovarian = system: OVCAR-5 ovarian
OVCAR-3 ovarian = system: OVCAR-3 ovarian
M14 melanoma = system: M14 melanoma
NCI-H522 lung = system: NCI-H522 lung
OVCAR-8 ovarian = system: OVCAR-8 ovarian
SK-MEL-5 melanoma = system: SK-MEL-5 melanoma
HL-60(TB) leukemia = system: HL-60(TB) leukemia
RXF 393 renal = system: RXF 393 renal
CCRF-CEM leukemia = system: CCRF-CEM leukemia
HOP-18 NSCLC = system: HOP-18 NSCLC
A498 renal = system: A498 renal
DMS 114 small cell lung = system: DMS 114 small cell lung
EKVX NSCLC = system: EKVX NSCLC

CC1CCCCc2nc3c(c(=O)n21)CCCC3 (stereo not drawn)
TGI (HCT-15 colon): > 100 µM | TGI (MALME-3M melanoma): > 100 µM | TGI (HOP-92 NSCLC): > 100 µM | TGI (CAKI-1 renal): > 100 µM | TGI (HT29 colon): > 100 µM | TGI (IGROV1 ovarian): > 100 µM | TGI (SK-MEL-28 melanoma): > 100 µM | TGI (HOP-62 NSCLC): > 100 µM | TGI (SW-620 colon): > 100 µM | TGI (LOX IMVI melanoma): > 100 µM | TGI (M19-MEL melanoma): > 100 µM | TGI (HCC-2998 colon): > 100 µM | TGI (MOLT-4 leukemia): > 100 µM | TGI (NCI-H226 lung): > 100 µM | TGI (SF-268 CNS): > 100 µM | TGI (UACC-257 melanoma): > 100 µM | TGI (XF 498 CNS): > 100 µM | TGI (HCT-116 colon): > 100 µM | TGI (U251 CNS): > 100 µM | TGI (SK-OV-3 ovarian): > 100 µM | TGI (786-0 renal): > 100 µM | TGI (K-562 leukemia): > 100 µM | TGI (SNB-75 CNS): > 100 µM | TGI (SF-539 CNS): > 100 µM | TGI (KM12 colon): > 100 µM | TGI (RXF-631 renal): > 100 µM | TGI (NCI-H460 lung): > 100 µM | TGI (SN12C renal): > 100 µM | TGI (COLO 205 colon): > 100 µM | TGI (SF-295 CNS): > 100 µM | TGI (OVCAR-4 ovarian): > 100 µM | TGI (DLD-1 colon): > 100 µM | TGI (SK-MEL-2 melanoma): > 100 µM | TGI (A549 NSCLC): > 100 µM | TGI (UO-31 renal): > 100 µM | TGI (TK-10 renal): > 100 µM | TGI (SNB-78 CNS): > 100 µM | TGI (KM20L2 colon): > 100 µM | TGI (DMS 273 small cell lung): > 100 µM | TGI (NCI-H23 lung): > 100 µM | TGI (ACHN renal): > 100 µM | TGI (SNB-19 CNS): > 100 µM | TGI (LXFL 529 NSCLC): > 100 µM | TGI (UACC-62 melanoma): > 100 µM | TGI (OVCAR-5 ovarian): > 100 µM | TGI (OVCAR-3 ovarian): > 100 µM | TGI (M14 melanoma): > 100 µM | TGI (NCI-H522 lung): > 100 µM | TGI (OVCAR-8 ovarian): > 100 µM

COc1ccc2c(c1)C(O)(C(F)(F)F)c1cc(C(=O)C(F)(F)F)c3ccccc3c1N2 (stereo not drawn)
TGI (HCT-15 colon): 21 µM | TGI (HOP-92 NSCLC): 29.6 µM | TGI (SK-MEL-5 melanoma): 26.6 µM | TGI (CAKI-1 renal): 26.8 µM | TGI (HT29 colon): 20.3 µM | TGI (IGROV1 ovarian): 27.9 µM | TGI (SK-MEL-28 melanoma): 27.7 µM | TGI (SW-620 colon): 26.8 µM | TGI (LOX IMVI melanoma): 16.5 µM | TGI (M19-MEL melanoma): 28.2 µM | TGI (HL-60(TB) leukemia): 43.2 µM | TGI (HCC-2998 colon): 24.3 µM | TGI (MOLT-4 leukemia): 33.8 µM | TGI (NCI-H226 lung): 28 µM | TGI (SF-268 CNS): 24.1 µM | TGI (UACC-257 melanoma): 26.4 µM | TGI (SK-OV-3 ovarian): 31.6 µM | TGI (786-0 renal): 26.3 µM | TGI (K-562 leukemia): 15.7 µM | TGI (SNB-75 CNS): 36 µM | TGI (SF-539 CNS): 31.3 µM | TGI (RXF 393 renal): 23.8 µM | TGI (KM12 colon): 15.6 µM | TGI (RXF-631 renal): 34.6 µM | TGI (NCI-H460 lung): 22.3 µM | TGI (COLO 205 colon): 19.5 µM | TGI (SF-295 CNS): 26.5 µM | TGI (OVCAR-4 ovarian): 22.4 µM | TGI (CCRF-CEM leukemia): 29.2 µM | TGI (DLD-1 colon): 22.4 µM | TGI (SK-MEL-2 melanoma): 25.2 µM | TGI (HOP-18 NSCLC): 33.3 µM | TGI (A549 NSCLC): 28.3 µM | TGI (UO-31 renal): 21.5 µM | TGI (TK-10 renal): 27.4 µM | TGI (A498 renal): 27.4 µM | TGI (KM20L2 colon): 13.7 µM | TGI (DMS 273 small cell lung): 23.1 µM | TGI (NCI-H23 lung): 25.6 µM | TGI (ACHN renal): 18.1 µM | TGI (SNB-19 CNS): 29.5 µM | TGI (LXFL 529 NSCLC): 22 µM | TGI (UACC-62 melanoma): 15.4 µM | TGI (DMS 114 small cell lung): 22.1 µM | TGI (EKVX NSCLC): 34.1 µM | TGI (OVCAR-5 ovarian): 27.5 µM | TGI (OVCAR-3 ovarian): 29.4 µM | TGI (M14 melanoma): 18.1 µM | TGI (NCI-H522 lung): 20.6 µM
